The source of these data is PMC6747323, “Discovery of Novel Angiotensin-Converting Enzyme Inhibitory Peptides from Todarodes pacificus and Their Inhibitory Mechanism: In Silico and In Vitro Studies” (International Journal of Molecular Sciences, 2019).

Ends that are not written are not given here. Peptide text beside a SMILES is read from it.

One assay has as its target T1, ACE from rabbit lungs (Oryctolagus cuniculus, UniProt P12822).
T1 construct: The ACE from rabbit lungs; purchased Sigma Chemical Company (St. Louis, MO, USA); host or cells: rabbit lung tissue
T1 sequence (P12822 34-1310): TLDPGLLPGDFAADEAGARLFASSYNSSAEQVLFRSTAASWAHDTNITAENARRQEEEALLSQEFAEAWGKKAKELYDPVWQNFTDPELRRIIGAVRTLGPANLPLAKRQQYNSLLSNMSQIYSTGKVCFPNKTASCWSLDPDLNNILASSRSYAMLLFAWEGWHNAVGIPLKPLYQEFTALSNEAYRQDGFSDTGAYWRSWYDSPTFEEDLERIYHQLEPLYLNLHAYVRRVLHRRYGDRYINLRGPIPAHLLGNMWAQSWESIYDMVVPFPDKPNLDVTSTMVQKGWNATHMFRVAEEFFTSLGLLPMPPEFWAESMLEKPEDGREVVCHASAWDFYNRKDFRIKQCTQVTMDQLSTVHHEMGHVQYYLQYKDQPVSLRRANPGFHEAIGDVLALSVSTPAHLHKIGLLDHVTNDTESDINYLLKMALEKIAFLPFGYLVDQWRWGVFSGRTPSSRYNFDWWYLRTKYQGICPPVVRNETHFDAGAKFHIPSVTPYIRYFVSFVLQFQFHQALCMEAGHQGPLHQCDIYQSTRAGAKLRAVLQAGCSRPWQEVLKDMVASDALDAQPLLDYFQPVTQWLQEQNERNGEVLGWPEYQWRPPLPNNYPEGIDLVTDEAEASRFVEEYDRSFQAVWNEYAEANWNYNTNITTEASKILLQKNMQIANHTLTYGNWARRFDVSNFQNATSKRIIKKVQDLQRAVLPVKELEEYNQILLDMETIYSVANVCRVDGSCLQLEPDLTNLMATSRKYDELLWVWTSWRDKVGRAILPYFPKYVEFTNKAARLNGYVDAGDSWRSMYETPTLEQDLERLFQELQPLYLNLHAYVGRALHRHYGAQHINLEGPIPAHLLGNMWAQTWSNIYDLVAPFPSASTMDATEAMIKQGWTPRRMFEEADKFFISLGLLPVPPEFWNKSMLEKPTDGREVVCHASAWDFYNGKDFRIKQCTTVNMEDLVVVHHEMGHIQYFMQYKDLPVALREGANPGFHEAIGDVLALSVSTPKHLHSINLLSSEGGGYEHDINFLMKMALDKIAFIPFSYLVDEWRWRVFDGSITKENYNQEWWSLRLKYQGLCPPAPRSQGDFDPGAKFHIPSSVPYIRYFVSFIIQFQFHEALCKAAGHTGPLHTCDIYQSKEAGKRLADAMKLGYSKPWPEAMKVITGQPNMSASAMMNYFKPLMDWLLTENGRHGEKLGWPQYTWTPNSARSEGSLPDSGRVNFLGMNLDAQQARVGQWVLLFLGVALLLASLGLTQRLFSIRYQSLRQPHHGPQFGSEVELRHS
The assay can be described thus: In vitro ACE inhibitory activity (HHL substrate, hippuric acid by UPLC). The class given is biochemical. The following applies: synthesized new peptides, read-out: pIC50 (ACE inhibition) (converted). An excerpt:
The tested peptides from t hmyosin heavy chain in Todarodes pacificus were provided by Anhui Guoping Pharmaceutical Co., Ltd. (Hefei, China). The ACE from rabbit lungs, hippuryl-histidyl-leucine (HHL), and hippuric acid (HA) were purchased from the Sigma Chemical Company (St. Louis, MO, USA). The solvents for high performance liquid chromatography (HPLC) including acetonitrile and trifluoroacetic acid (TFA) were provided by Merck (Darmstadt, Germany). All the other reagents and chemicals used were of analytical grade.
The ACE inhibitory activity analysis was performed based on Yu et al. with some modifications. HHL was dissolved in 100 mM sodium borate buffer (pH 8.3) to achieve a final concentration of 5.8 mM. A reaction mixture containing 50 μL of ACE solution (100 mU/mL) and 100 μL of sample were pre-incubated at 37 °C for 5 min. Subsequently, 150 μL HHL was added and the mixture was incubated at 37 °C for 60 min. The reaction was terminated by the addition of 200 μL of 0.1 M HCl. […] The amount of HA was determined via an ultra-performance liquid chromatography on a Waters Acquity UPLC BEH C18 column (1.7 μm, 2.1 mm × 100 mm). […] The degree of ACE inhibition was calculated as follows:(1) ACE inhibition activity (%)=A−B/A×100% where A was the HA concentration of a reaction containing ACE without peptide, B was the HA concentration of a reaction in the presence of ACE and peptide. […]
`NCCCC[C@H](NC(=O)[C@@H]1CCCN1C(=O)[C@@H]1CCCN1C(=O)[C@@H](N)CC(N)=O)C(=O)O` [NPPK, Asn-Pro-Pro-Lys] (H-NPPK-OH): the IC50 is 38.9 µM.

A further assay deals with spontaneously hypertensive rats.
Test: not given
Further details: method as in PMID 28102435. As to conditions: cited from earlier work.
For KVLPVPQ, the Antihypertensive effect result was “effective”.

Another assay deals with ACE.
Test: not given
The following applies: from porcine skeletal muscle hydrolysate; cited from earlier work.
As to “Met-Asn-Pro-Pro-Lys (MNPPK; printed: Met-Asn-Pro-Pro-Lys)”, the “pIC50 (ACE inhibition)” value is recorded as 3.02.

The same assay, now with this note: peptide derived from catfish myofibrillar protein; cited from earlier work.
For the compound “Ile-Glu-Lys-Pro (IEKP; printed: Ile-Glu-Lys-Pro)”, the “IC50 (ACE inhibition)” value was 2.1 µg/mL.

Still in this assay, the particulars now being: β-casein fragment; cited from earlier work.
As to KVLPVPQ, the “ACE inhibitory activity in vitro” value is “relatively weak”.

Another assay has as its system ACE.
Test: not given
Details: method as in AHTpin and BIOPEP-UWM databases. As to conditions: Table S1, plant proteases without PREP; ref AHTpin and BIOPEP-UWM databases; cited from earlier work.
In general, pIC50 refers to −log10 of the IC50, conventionally taken in molar units. In the case of Ala-Gly [AG], the pIC50 is on record as 2.60.
Ala-His [AH]: the pIC50 was 3.28.
Ala-Phe [AF]: the pIC50 is recorded as 3.78.
Take Ala-Ser-Leu [ASL]: the negative logarithm of the IC50 (pIC50) is reported as 3.99.
As to Ala-Tyr [AY], the pIC50 is 4.85.
On to Asn-Gly [NG], for which the negative logarithm of the IC50 (pIC50) was 1.92.
In the case of Asn-Tyr [NY], the pIC50 is on record as 4.49.
Regarding Asp-Gly [DG], the pIC50 is given as 5.67.
Take Asp-Tyr [DY]: the pIC50 is on record as 4.00.
In the case of Gln-Lys [QK], the pIC50 is recorded as 3.05.
For the compound Glu-Gly [EG], the pIC50 is recorded as 2.00.
Take Glu-Trp [EW]: the pIC50 is on record as 3.86.
On to Glu-Tyr [EY], for which the pIC50 is recorded as 5.57.
In the case of Ile-Arg [IR], the pIC50 is 3.16.
For the compound Ile-Leu, the pIC50 is listed as 4.26.
Take Ile-Phe [IF]: the negative logarithm of the IC50 (pIC50) is recorded as 4.18.
Take Ile-Tyr [IY]: the pIC50 is given as 5.68.
Turning to Met-Gly [MG], the pIC50 was 2.32.
For Met-Phe [MF], the pIC50 is recorded as 6.04.
For the compound Met-Tyr [MY], the pIC50 is 3.71.
Take Pro-Leu [PL]: the pIC50 is on record as 3.47.
Regarding Pro-Pro-Lys [PPK], the pIC50 is 3.00.
Regarding Ser-Gly [SG], the pIC50 is 2.07.
For the compound Ser-Phe [SF], the pIC50 is on record as 3.89.
With Ser-Thr [ST], the pIC50 is recorded as 5.39.
Thr-Phe [TF]: the pIC50 is reported as 4.74.
Trp-Leu [WL]: the negative-log IC50 (pIC50) was 4.52.
With Val-Ala-Phe [VAF], the pIC50 is on record as 4.45.
For the compound Val-Phe [VF], the pIC50 was 5.04.

Still in this assay, the particulars now being: Table S2, plant proteases with PREP; ref AHTpin and BIOPEP-UWM databases; cited from earlier work.
Ala-Ile-Pro [AIP]: the pIC50 is reported as 3.46.
For the compound Ala-Pro [AP], the negative-log IC50 (pIC50) is 4.54.
Turning to Ala-Val-Pro [AVP], the pIC50 was 3.47.
Turning to Lys-Pro [KP], the pIC50 is recorded as 4.66.
For the compound Thr-Pro [TP], the pIC50 is on record as 3.54.
Turning to Val-Pro [VP], the pIC50 is recorded as 3.38.
